Measured values reported in patent US12234486B2, “Modular, microfluidic, mechanically active bioreactor for 3D, multi-tissue, tissue culture” (University of Pittsburgh—Of the Commonwealth System of …, priority 2013, dated 2025).

Test system: chondrocytes in the cartilage chamber
Assay: RT-PCR marker expression in cartilage (top) chamber of bioreactor after hormone supply
Type: cell-based
Conditions: progesterone progressively added to estradiol, week 3 and 4 (10 nM, 50 nM), higher when hormones directly applied to cartilage
Experimental: FIGS. 17-20 are graphs that show differential expression of markers (as determined by RT-PCR) for a control medium that contained no estrogen or progesterone (first bar), and then different concentrations of hormones supplied to one or the other of the bioreactor chambers during week 1 (w1: 0.1 nM estradiol), week 2 (w2: 1 nM estradiol), week 3 (w3: 1 nM estradiol and 10 nM progesterone), and week 4 (w4: 0.1 nM estradiol and 50 nM progesterone). […] FIGS. 17-18 show differential expression of markers (as determined by RT-PCR) for a control medium that contained no estrogen or progesterone (first bar), and then different concentrations of hormones supplied to the chambers during week 1 (w1: 0.1 nM estradiol), week 2 (w2: 1 nM estradiol), week 3 (w3: 1 nM estradiol and 10 nM progesterone), and week 4 (w4: 0.1 nM estradiol and 50 nM progesterone).

CC(=O)[C@H]1CC[C@H]2[C@@H]3CCC4=CC(=O)CC[C@]4(C)[C@H]3CC[C@]12C [progesterone]
cartilage anabolic markers (Sox9, Aggrecan): downregulation is still present
